Measurements as given in patent US8729090B1, “Compositions and methods for inhibiting collagen production” (Florida State University Research Foundation, Inc., priority 2011, dated 2014).

Experiments:
[1] = tested on: primary human lung fibroblasts; experiment: Inhibition of type I collagen secretion by primary human lung fibroblasts, western blot of cellular medium; type: cell-based; settings: two days; for secretion of type I collagen polypeptides COLα1(I) and COLα2(I) into the cellular medium: western blot
Protocol: Several chemical compounds were identified in this screen and tested for their ability to inhibit collagen production by primary human lung fibroblasts in culture. Lung fibroblasts are responsible for development of lung fibrosis. The compounds were added in a single dose of 100 μM to the lung fibroblasts, except compound 60D17, which was added at 10 μM. Two days after the addition of the compounds, the secretion of type I collagen into the cellular medium was analyzed by western blot. Both polypeptides which form type I collagen, COLα1(I) and COLα2(I), were analyzed.
Here, COLα1 represents the α1 polypeptide of type I collagen, COLα2 represents the α2 polypeptide of type I collagen, and FIB represents fibronectin, which was the control.

[2] = tested on: lung fibroblasts; experiment: Type I collagen expression of lung fibroblasts at therapeutic (nM) concentrations, western blot; type: cell-based, human
Protocol: In lung fibrosis the process of excessive collagen accumulation is similar to the liver, but the cells responsible for collagen synthesis are lung fibroblasts. Therefore, I tested the potency of 60D17 at therapeutic concentrations in lung fibroblasts before 60D17 was tested at higher concentrations in these cells.
Lane 4 represents untreated control cells.

[3] = tested on: hepatic stellate cells (HSCs); experiment: Inhibition of collagen α1(I) polypeptide synthesis in cultured hepatic stellate cells (HSCs), western blot; type: cell-based, rat; settings: added at day 3, measured at day 7
Source text: HSCs are liver cells responsible for collagen synthesis in hepatic fibrosis. […] In fibrotic livers, HSCs increase type I collagen expression 50-100 fold. Similar changes can be reproduced when HSCs are isolated from rat livers and cultured in vitro.
Three days after isolation and culturing, the HSCs still retain their quiescent phenotype and show little collagen expression. At day 5 after isolation the first significant increase in collagen expression becomes evident. After 7-8 days of culturing type I collagen expression increases 50-100 fold and attains its maximal level.
I used this model to test the efficacy of 60D17 in inhibiting collagen expression, because it is relevant to liver fibrosis. 60D17 was added at 100 nM and 250 nM concentrations to HSCs at day 3 in the culture. The cells were cultured until day 7 and the level of collagen α1(I) polypeptide was measured by western blot.
Lane 1 contained untreated cells. Lane 2 contained HSCs treated with 250 nM of 60D17. Lane 3 contained HSCs treated with 100 nM of 60D17. The panel on the left represents the cellular levels of collagen α1(I) polypeptide measured by western blot. Actin (ACT) was used as the loading control. The right panel represents the collagen α1(I) polypeptide level in the cellular medium.

[4] = tested on: rat liver slices; experiment: Collagen expression in precision cut rat liver slices, western blot; type: cell-based; settings: 1 μM, 4 days, four slices
Protocol: In these experiments 60D17 was added to four different slices (lanes 2-5) […] at 1 μM concentration. The expression of both collagen α1(I) polypeptide, resolved here as procollagen (PRO-COLL1A1), and processed mature collagen (COLL 1A1) were measured by western blot. Lanes 1 and 6 were untreated control. Actin (ACT) was used as the loading control.
Precision cut liver slices were prepared from rat liver with a thickness of 350 μm and diameter of 8 mm. These slices were cultured in vitro for several days. Cutting the liver represents an injury thereto. In response to this injury, the slices initiate profibrotic changes. The response is similar to the fibrotic response of the intact organ, because the slices retain all different cell types and proper architecture of the organ. Thus, they mimic fibrosis initiation of the whole liver. Accordingly, this is a useful model to test the efficacy of 60D17 in blocking the profibrotic reaction.

[5] = Initial animal studies, tolerability in rats; type: in vivo
[6] = tested on: collagen synthesis; settings: cited from earlier work

Compound	antifibrotic activity (collagen production by human lung fibroblasts, FIG. 1) ([1]; single dose of 100 μM)	secretion of type I collagen polypeptides COLα1(I) and COLα2(I) into the cellular medium ([1]; single dose of 100 μM)	also measured
NCc1ccc(N2CCOCC2)cc1 [1E10]	posses antifibrotic activity	dramatically reduced excretion of both collagen polypeptides	
O=c1c2oc3cccc4c3n(c=2c(=O)c2ccccc12)CCC4 [11M14]	posses antifibrotic activity	reduced production of α1(I) polypeptide more than that of α2 polypeptide	
Cc1cccn2c(=O)c3cc(C(=O)N4CCN(c5ccccc5)CC4)n(C)c3nc12 [13B8]	posses antifibrotic activity	reduced production of α1(I) polypeptide more than that of α2 polypeptide	
COC(=O)c1ccc2c3c([nH]c2c1)CCCC3 [13F20]	posses antifibrotic activity	dramatically reduced excretion of both collagen polypeptides	
Cc1cc(C)nc(-n2nc(-c3ccc4ccccc4c3)cc2O)n1 [45F6]	posses antifibrotic activity	dramatically reduced excretion of both collagen polypeptides	
COc1ccc(N2CCOCC2)c(NC(=O)C(C)(C)C)c1 [45I22]	posses antifibrotic activity	dramatically reduced excretion of both collagen polypeptides	
Cc1cc(C)nc(-n2[nH]c3nccc(-c4ccc5ccccc5c4)c3c2=O)n1 [49L20]	posses antifibrotic activity	reduced production of α1(I) polypeptide more than that of α2 polypeptide	
CCN1CCCC1CNC(=O)c1ccc(S(=O)(=O)N2CCOCC2)cc1 (stereo not drawn) [57N21]	posses antifibrotic activity	reduced production of α1(I) polypeptide more than that of α2 polypeptide	
Cn1c(C(=O)Nc2ccccc2)cc2c(=O)n3ccccc3nc21 [60D17-G]			synthesis of type I collagen ([2]; nM concentrations, cells not given): interfered with the synthesis of type I collagen at nM concentrations
Cc1cccn2c(=O)c3cc(C(=O)Nc4cccnc4)n(C)c3nc12 [60D17]			antifibrotic activity (collagen production by human lung fibroblasts, FIG. 1) ([1]; single dose of 10 μM): posses antifibrotic activity; secretion of type I collagen polypeptides COLα1(I) and COLα2(I) into the cellular medium ([1]; single dose of 10 μM): dramatically reduced excretion of both collagen polypeptides; collagen α1(I) polypeptide expression in HSCs ([3]; 100 nM): significantly inhibited collagen production; collagen α1(I) polypeptide expression in HSCs ([3]; 250 nM): almost completely blocked the increase in collagen expression; expression of collagen α1(I) polypeptide in rat liver slices [4]: significantly inhibited expression of collagen α1(I) polypeptide; type I collagen expression ([2]; 50 nM): substantially ineffective; synthesis of collagen α1(I) polypeptide ([2]; 100 nM): smaller effect; synthesis of collagen α2(I) polypeptide ([2]; 100 nM): dramatically inhibited synthesis of collagen α2(I) polypeptide; production of both polypeptides comprising type I collagen ([2]; 500 nM, 18 h): almost completely inhibited; tolerability in rats [5]: well tolerated
COC(=O)CNC(=O)c1cc2c(=O)n3cccc(C)c3nc2n1C [60J13]	posses antifibrotic activity	dramatically reduced excretion of both collagen polypeptides	
CN(C)c1cccc(-c2nn3c(-c4ccccn4)nnc3s2)c1 [60M4]	posses antifibrotic activity	reduced α2 polypeptide more than α1 polypeptide	
CC(CCO)Nc1nc2c(c(=O)n(C)c(=O)n2C)n1Cc1ccccc1F (stereo not drawn) [65N3]	posses antifibrotic activity	dramatically reduced excretion of both collagen polypeptides	
CCSc1nnc2c(n1)OC(c1ccncc1)=Nc1ccccc1-2 [67C17]	posses antifibrotic activity	reduced α2 polypeptide more than α1 polypeptide	
O=S(=O)(c1cccc2ccccc12)N1CCCNCC1 [ML-7]			collagen synthesis [6]: interferes with collagen synthesis
